Experimental data from PMC10518255, “A first-in-class pan-lysyl oxidase inhibitor impairs stromal remodeling and enhances gemcitabine response and survival in pancreatic cancer” (Nature Cancer, 2023).
Where “and” joins values, the source holds several entries; their conditions need not be identical. Equal entries are not always repeated.

Legend:
pSTAT3 = experiment: Immunohistochemistry of end-point KPC tumors: STAT3 activation; format: in vivo, mouse; conditions: for Quantification of STAT3 activation (pSTAT3 positive nuclear staining): Extended Data 6F, KPC tumours at endpoint, individual FOV
Experimental: All tissues or matrices, including patient TMAs, were fixed in 10% buffered formalin and embedded in paraffin. The 4-μm sections of samples were deparaffinized with xylene and rehydrated in graded ethanol washes. For immunohistochemistry, Bond Dewax Solution (AR9222) was used. Antigen retrieval was performed using Bond RX H2(30) protocol: HIER 30 min ER1 (citrate pH 6) OR ER2 (EDTA pH 9) at 100 °C. Slides were quenched in BOND Polymer Refine Detection (Leica Biosystems DS9800). […] Slides were digitized on an Aperio slide scanner and representative areas per tumor acquired and analyzed by researchers blinded to the conditions of the experiment.
Extended Data Fig. 6 PXS-5505 in combination with gemcitabine in a KPC model. a. Quantification of proliferating cells (Ki67 positive nuclear staining) in KPC tumors at end point, treated as indicated. 5 fields of view (500 μm × 500 μm) per mouse and 10 mice per cohort were scored. […] Quantification of percent coverage of αSMA positive staining in KPC tumors at end point, treated as indicated. 3 fields of view (1000 μm × 1000 μm) per mouse and 10 mice per cohort were scored. […] Quantification of percent coverage of PDGFR-ß positive staining in KPC tumors at end point, treated as indicated. 3 fields of view (1000 μm × 1000 μm) per mouse and 10 mice per cohort were scored. […] Quantification of pMLC2 positive staining in stromal regions of KPC tumors at end point, treated as indicated. 3 fields of view (500 μm × 500 μm) per mouse and 10 mice per cohort were scored. […] Quantification of tumor vasculature (CD31 positive staining) in KPC tumors at end point, treated as indicated. 3 fields of view (1000 μm × 1000 μm) per mouse and 10 mice per cohort were scored. […] Quantification of STAT3 activation (pSTAT3 positive nuclear staining) in KPC tumors at end point, treated as indicated. 3 fields of view (1000 μm × 1000 μm) per mouse and 5 mice per cohort were scored. […] Scale bars = 100 μm. g Quantification of macrophage infiltration (F4/80 positive staining) in KPC tumors at end point, treated as indicated. […]

KPC PDAC tumors = experiment: Necrosis determined by H&E in end-point KPC tumors; format: in vivo; conditions: KPC tumours at endpoint; one value per mouse, 8 mice per cohort scored (Extended Data 6J)
Experimental: All tissues or matrices were fixed in 10% buffered formalin and embedded in paraffin. The 4-μm sections of samples were deparaffinized with xylene and rehydrated in graded ethanol washes. H&E staining and counterstaining were performed on a Leica autostainer.
Extended Data Fig. 6 PXS-5505 in combination with gemcitabine in a KPC model. a. Quantification of proliferating cells (Ki67 positive nuclear staining) in KPC tumors at end point, treated as indicated. 5 fields of view (500 μm × 500 μm) per mouse and 10 mice per cohort were scored. […] Scale bars = 100 μm b. Quantification of percent coverage of αSMA positive staining in KPC tumors at end point, treated as indicated. 3 fields of view (1000 μm × 1000 μm) per mouse and 10 mice per cohort were scored. […] Scale bars = 100 μm c. Quantification of percent coverage of PDGFR-ß positive staining in KPC tumors at end point, treated as indicated. 3 fields of view (1000 μm × 1000 μm) per mouse and 10 mice per cohort were scored. […] Scale bars = 100 μm d. Quantification of pMLC2 positive staining in stromal regions of KPC tumors at end point, treated as indicated. 3 fields of view (500 μm × 500 μm) per mouse and 10 mice per cohort were scored. […] Quantification of tumor vasculature (CD31 positive staining) in KPC tumors at end point, treated as indicated. 3 fields of view (1000 μm × 1000 μm) per mouse and 10 mice per cohort were scored. […]

Compound	Quantification of STAT3 activation (pSTAT3 positive nuclear staining) (pSTAT3)	pSTAT3-positive nuclear staining (pSTAT3; KPC tumors at end point)	necrosis determined by H&E (KPC PDAC tumors)
Nc1ccn([C@@H]2O[C@H](CO)[C@@H](O)C2(F)F)c(=O)n1 [Gem, gemcitabine]	1.773 and 0.7075 and 2.095 and 2.515 and 2.91 and 1.454 and 7.421 and 2.089 and 1.705 and 5.289 and 6.71 and 3.256 and 6.948 and 7.388 and 6.1144	significantly increased levels of pSTAT3-positive staining	0 and 7.986 and 6.976 and 4.928
Cl.Cl.NC/C=C(\F)CS(=O)(=O)c1cccc2cccnc12.O [PXS-5505, (Z)-3-fluoro-4-(quinolin-8-ylsulfonyl)but-2-en-1-amine dihydrochloride monohydrate]	2.225 and 1.368 and 3.504 and 0.042 and 0 (2×) and 3.991 and 1.153 and 0.6262 and 11.8493 and 3.81 and 4.532 and 0.05376		0 and 2.201 and 15.496 and 22.429 and 2.215
